Data: ChEMBL document CHEMBL4334421, “Design, synthesis and biological evaluation of β-peptoid-capped HDAC inhibitors with anti-neuroblastoma and anti-glioblastoma activity” (Medchemcomm, 2019)

Legend:
[1] = target: T1, Protein deacetylase HDAC6 (Homo sapiens, UniProt Q9UBN7); experiment: Inhibition of recombinant full length N-terminal GST-tagged human HDAC6 expressed in baculovirus infected Sf9 cells using Z-Lys(Ac)-AMC as substrate incubated for 90 mins followed by trypsin addition and measured after 30 mins by fluorescence based assay
T1 sequence (Q9UBN7 whole entry): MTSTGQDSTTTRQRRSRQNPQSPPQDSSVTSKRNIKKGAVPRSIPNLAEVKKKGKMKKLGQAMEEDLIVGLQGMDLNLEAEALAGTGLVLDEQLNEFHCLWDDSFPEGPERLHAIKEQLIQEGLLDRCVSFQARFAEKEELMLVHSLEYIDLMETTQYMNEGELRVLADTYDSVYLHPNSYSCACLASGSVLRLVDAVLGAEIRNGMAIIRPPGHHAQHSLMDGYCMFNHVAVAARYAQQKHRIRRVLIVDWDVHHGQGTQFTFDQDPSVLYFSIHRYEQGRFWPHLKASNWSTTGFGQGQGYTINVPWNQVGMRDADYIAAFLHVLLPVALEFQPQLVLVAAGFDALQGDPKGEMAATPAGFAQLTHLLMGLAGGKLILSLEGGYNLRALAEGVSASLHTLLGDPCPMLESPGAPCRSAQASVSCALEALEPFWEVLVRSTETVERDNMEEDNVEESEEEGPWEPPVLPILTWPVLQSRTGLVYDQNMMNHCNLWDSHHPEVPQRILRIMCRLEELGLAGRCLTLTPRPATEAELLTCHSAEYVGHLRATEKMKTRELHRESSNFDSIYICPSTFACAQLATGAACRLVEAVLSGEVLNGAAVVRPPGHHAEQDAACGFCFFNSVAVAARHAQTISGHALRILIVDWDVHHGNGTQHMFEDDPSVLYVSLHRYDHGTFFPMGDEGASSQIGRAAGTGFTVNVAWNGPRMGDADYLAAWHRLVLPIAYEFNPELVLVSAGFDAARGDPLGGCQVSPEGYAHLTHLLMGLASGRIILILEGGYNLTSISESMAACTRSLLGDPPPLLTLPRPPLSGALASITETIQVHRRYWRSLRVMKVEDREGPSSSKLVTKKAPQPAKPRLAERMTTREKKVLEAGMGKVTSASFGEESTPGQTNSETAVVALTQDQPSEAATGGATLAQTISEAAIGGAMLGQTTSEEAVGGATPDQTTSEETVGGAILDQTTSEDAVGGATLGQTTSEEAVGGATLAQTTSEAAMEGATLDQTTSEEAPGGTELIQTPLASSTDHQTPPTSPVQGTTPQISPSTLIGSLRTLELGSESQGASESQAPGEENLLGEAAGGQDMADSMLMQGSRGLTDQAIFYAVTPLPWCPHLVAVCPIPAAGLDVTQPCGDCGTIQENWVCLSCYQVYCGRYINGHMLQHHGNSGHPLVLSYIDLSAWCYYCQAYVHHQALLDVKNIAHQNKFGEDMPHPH

G55T2 [2] = experiment: Antiproliferative activity against human G55T2 cells assessed as reduction in cell viability incubated for 72 hrs by WST-8 assay; format: functional, cell-based; conditions: G55T2, 72 h
SK-N-AS = experiment: Antiproliferative activity against human SK-N-AS cells assessed as reduction in cell viability incubated for 72 hrs by cell-titer Glo assay; format: functional, cell-based
NB1 = experiment: Antiproliferative activity against human NB-1 cells assessed as reduction in cell viability incubated for 72 hrs by cell-titer Glo assay; format: functional, cell-based; conditions: NB1, 72 h
IMR-32 = experiment: Antiproliferative activity against human IMR32 cells assessed as reduction in cell viability incubated for 72 hrs by cell-titer Glo assay; format: functional, cell-based; conditions: IMR-32, 72 h
Histone deacetylase 1 = Histone deacetylase 1 (Homo sapiens, UniProt Q13547); experiment: Inhibition of recombinant full length C-terminal FLAG/His-tagged human HDAC1 expressed in baculovirus infected Sf9 cells using Z-Lys(Ac)-AMC as substrate incubated for 90 mins followed by trypsin addition and measured after 30 mins by fluorescence based assay
Chain of Histone deacetylase 1 (Q13547 whole entry): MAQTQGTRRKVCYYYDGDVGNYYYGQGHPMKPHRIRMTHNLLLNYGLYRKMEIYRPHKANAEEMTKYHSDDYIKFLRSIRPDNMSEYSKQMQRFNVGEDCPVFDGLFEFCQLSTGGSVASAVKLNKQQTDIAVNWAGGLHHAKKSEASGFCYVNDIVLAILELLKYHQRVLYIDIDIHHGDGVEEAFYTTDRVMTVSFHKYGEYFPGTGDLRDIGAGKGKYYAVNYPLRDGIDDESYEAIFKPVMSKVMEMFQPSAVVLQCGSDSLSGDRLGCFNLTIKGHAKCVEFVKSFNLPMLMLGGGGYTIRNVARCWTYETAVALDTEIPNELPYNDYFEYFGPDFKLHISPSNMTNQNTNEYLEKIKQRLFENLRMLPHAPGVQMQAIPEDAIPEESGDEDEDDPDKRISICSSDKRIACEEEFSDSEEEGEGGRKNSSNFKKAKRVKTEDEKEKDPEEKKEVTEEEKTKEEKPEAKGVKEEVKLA

CHP-134 = experiment: Antiproliferative activity against human CHP134 cells assessed as reduction in cell viability incubated for 72 hrs by cell-titer Glo assay; format: functional, cell-based; conditions: CHP-134, 72 h
G55T2 [3] = experiment: Cell cycle arrest in human G55T2 cells assessed as accumulation in G2/M phase at 1 uM incubated for 72 hrs by propidium iodide based flow cytometry (reference value: 26.8 %); format: functional
G55T2 [4] = experiment: Cell cycle arrest in human G55T2 cells assessed as accumulation in G0/G1 phase at 1 uM incubated for 72 hrs by propidium iodide based flow cytometry (reference value: 49.9 %); format: functional
G55T2 [5] = experiment: Cell cycle arrest in human G55T2 cells assessed as accumulation in S phase at 1 uM incubated for 72 hrs by propidium iodide based flow cytometry (reference value: 14.7 %); format: functional
G55T2 [6] = experiment: Cell cycle arrest in human G55T2 cells assessed as accumulation in subG0 phase at 3 uM incubated for 72 hrs by propidium iodide based flow cytometry (reference value: 4.5 %); format: functional
G55T2 [7] = experiment: Cell cycle arrest in human G55T2 cells assessed as accumulation in G0/G1 phase at 3 uM incubated for 72 hrs by propidium iodide based flow cytometry (reference value: 49.9 %); format: functional
G55T2 [8] = experiment: Cell cycle arrest in human G55T2 cells assessed as accumulation in S phase at 3 uM incubated for 72 hrs by propidium iodide based flow cytometry (reference value: 14.7 %); format: functional
G55T2 [9] = experiment: Cell cycle arrest in human G55T2 cells assessed as accumulation in G2/M phase at 3 uM incubated for 72 hrs by propidium iodide based flow cytometry (reference value: 26.8 %); format: functional
G55T2 [10] = experiment: Cell cycle arrest in human G55T2 cells assessed as accumulation in subG0 phase at 1 uM incubated for 72 hrs by propidium iodide based flow cytometry (reference value: 4.5 %); format: functional

| IC50 [1] [nM] | IC50 (SK-N-AS) [nM] | IC50 (Histone deacetylase 1) [nM] | Compound | IC50 (G55T2 [2]) [nM] | IC50 (NB1) [nM] | IC50 (IMR-32) [nM] | IC50 (CHP-134) [nM] | Activity (G55T2 [3]) [%] | Activity (G55T2 [4]) [%] | Activity (G55T2 [5]) [%] | Activity (G55T2 [6]) [%] | Activity (G55T2 [7]) [%] | Activity (G55T2 [8]) [%] | Activity (G55T2 [9]) [%] | Activity (G55T2 [10]) [%] |
| --- | --- | --- | --- | --- | --- | --- | --- | --- | --- | --- | --- | --- | --- | --- | --- |
| 12.5 | 3310 | 134 | O=C(CCN(Cc1ccc(C(=O)NO)cc1)C(=O)c1ccccc1)NCc1ccccc1 | 5940 | 6660 | 2360 | 4680 |  |  |  |  |  |  |  |  |
| 10.7 | 620 | 27.5 | Cc1ccc(NC(=O)CCN(Cc2ccc(C(=O)NO)cc2)C(=O)c2ccccc2)cc1 | 540 | 1480 | 550 | 1160 |  |  |  |  |  |  |  |  |
|  |  | 2100 | O=C(NO)c1ccc(CC(=O)N(CCO)c2ccccc2)cc1 |  |  |  |  |  |  |  |  |  |  |  |  |
| 26 | 9470 | 147 | COc1cc(OC)cc(C(=O)N(CCC(=O)NCc2ccccc2)Cc2ccc(C(=O)NO)cc2)c1 | 14700 | 13300 | 6040 | 12300 |  |  |  |  |  |  |  |  |
| 31.1 | 220 | 43 | Cc1ccc(NC(=O)CCN(Cc2ccc(C(=O)NO)cc2)C(=O)c2cc(C)cc(C)c2)cc1 | 370 | 670 | 210 | 380 | 29.1 | 52.3 | 13.2 | 23.3 | 30.2 | 9.8 | 31.1 | 3.5 |
| 16.7 | 910 | 16.1 | Cc1ccc(C(=O)N(CCC(=O)NCc2ccccc2)Cc2ccc(C(=O)NO)cc2)cc1 | 690 | 1610 | 630 | 1100 |  |  |  |  |  |  |  |  |
| 25.3 | 1740 | 41.9 | COc1ccc(C(=O)N(CCC(=O)NCc2ccccc2)Cc2ccc(C(=O)NO)cc2)cc1 | 3490 | 2520 | 1090 | 1900 |  |  |  |  |  |  |  |  |
|  |  |  | O=C(CCCCCCC(=O)Nc1ccccc1)NO [VORINOSTAT] |  |  |  |  |  |  |  | 24.8 | 31.3 | 8.1 | 28.9 |  |
| 19.5 | 400 | 12.9 | Cc1ccc(NC(=O)CCN(Cc2ccc(C(=O)NO)cc2)C(=O)c2ccc(N(C)C)cc2)cc1 | 330 | 660 | 300 | 540 |  |  |  |  |  |  |  |  |
| 14.4 | 340 | 27.8 | Cc1ccc(CNC(=O)CCN(Cc2ccc(C(=O)NO)cc2)C(=O)c2ccc(N(C)C)cc2)cc1 | 430 | 700 | 260 | 420 |  |  |  |  |  |  |  |  |
| 20.5 | 1860 | 128 | Cc1cc(C)cc(C(=O)N(CCC(=O)NCc2ccccc2)Cc2ccc(C(=O)NO)cc2)c1 | 4250 | 3870 | 1390 | 2030 |  |  |  |  |  |  |  |  |
| 10 | 390 | 21.2 | CN(C)c1ccc(C(=O)N(CCC(=O)NCc2ccc(Cl)cc2)Cc2ccc(C(=O)NO)cc2)cc1 | 460 | 850 | 310 | 610 |  |  |  |  |  |  |  |  |
| 14.8 | 1420 | 14.7 | CN(C)c1ccc(C(=O)N(CCC(=O)NCc2ccccc2)Cc2ccc(C(=O)NO)cc2)cc1 | 1150 | 1720 | 840 | 1160 |  |  |  |  |  |  |  |  |
